# According to PMC8558867, “Development of BromoTag: A “Bump-and-Hole”–PROTAC System to Induce Potent, Rapid, and Selective Degradation of Tagged Target Proteins” (Journal of Medicinal Chemistry, 2021):
# Read-outs that look alike come from different tables or passages of the source.
# Tests used:
# [1] = test system: BromoTag-Brd2; assay: Time course degradation assay (western blot, 0–36 h) in heterozygous BromoTag-Brd2 HEK293 cells; type: cell-based, human; conditions: 500 nM 47, 1 μM 48, over 36 h
# Description: Heterozygous BromoTag-Brd2 HEK293 cells were plated at a density of 5 × 10^5 cells per well of a six-well healthy plate a day prior to initiating the time course assay. […] The time point range was between 0 and 36 h. Treatment was applied in a staggered fashion to enable all time points to be harvested at the same time.
# (§1) All cells were harvested on ice with RIPA lysis and extraction buffer (Thermo Fisher Scientific, 89901) supplemented with protease inhibitor cocktail (Merck, 11697498001) and Benzonase Nuclease (Sigma, E1014) before being stored at −20 °C prior to use. Total protein quantity was determined using the BCA protein assay (#23225, Pierce, Rockford, Illinois). The protein concentration was determined using the BCA assay (Thermo Fisher Scientific, 23225). The samples were then prepared and loaded onto NuPAGE 4–12% bis–tris Midi gels (Thermo Fisher Scientific, WG1403A), followed by the transfer of proteins onto nitrocellulose membranes (EMD Millipore). The membranes were blocked for 1 h prior to incubation with the primary antibodies using 5% Milk TBST. […] All western blots were analyzed for band intensities using Image Lab from Bio-Rad (LI-COR, Biosciences). The data extracted from these blots were then plotted and analyzed using Prism (v. 8.2.0, GraphPad).
# [2] = target: T1, VHL (VCB protein) (Homo sapiens, UniProt P40337); assay: FP competitive binding assay, binary binding; conditions: compound alone; mean ±S.E.M., N = 4; read-out: binary affinity to VHL Kd
# T1 construct: N-terminally His6-tagged VHL (54–213); His6 (N, cleaved yes); made in house; host or cells: E. coli
# [3] = target: T2, VHL with Brd4^BD2 L387A (Homo sapiens, UniProt O60885+P40337, L387A); assay: FP competitive binding assay, ternary complex binding (compound preincubated with Brd4^BD2 L387A); conditions: for α (FP binding): cooperativity, Kd binary/Kd ternary, supplementary CSV; for Kd: preincubated with Brd4^BD2 L387A, mean ±S.E.M., N = 4, read-out: ternary binding affinity Kd; for cooperativity (α): α = Kd binary/Kd ternary
# T2 construct: N-terminally His6-tagged VHL (54–213); His6 (N, cleaved yes); made in house; host or cells: E. coli
# [4] = test system: BromoTag-Brd2; assay: Dose–response degradation assay (western blot, 6 h) in heterozygous BromoTag-Brd2 HEK293 cells; type: cell-based, human; conditions: 6 h; for pDC50 (Ab: Brd^4BD2 L387A) / pDC50 (Ab: BromoTag-Brd2): eight-point 10 μM to 1 nM, mean ±S.E. of two repeats; for DC50: read-out: DC50 of BromoTag-Brd2 degradation (DC50, 6h), single stereoisomers
# [5] = test system: Brd4^BD2 wild-type domain; set-up: method as in PMID 32756710; conditions: cited from earlier work
# [6] = test system: 22RV1 cells; assay: CellTiter-Glo 2.0 cell viability assay, 22RV1; type: cell-based, human; conditions: Homo sapiens; 22RV1, 48 Hours, mean ±S.E.M, N = 2; read-out: pEC50 (cell viability) (converted)
# [7] = set-up: method as in earlier work; conditions: mice, cited from earlier work
# [8] = test system: MV-4-11 cells; assay: CellTiter-Glo 2.0 cell viability assay, MV-4-11; type: cell-based, human; conditions: Homo sapiens, MV4-11
# [9] = test system: HEK293 cells; assay: CellTiter-Glo 2.0 cell viability assay, HEK293; type: cell-based, human; conditions: Homo sapiens; HEK293, 48 Hours, mean ±S.E.M, N = 3; read-out: pEC50 (cell viability) (converted)
# [10] = test system: proteome of heterozygous BromoTag-Brd2 HEK293 cells; assay: Multiplexed TMT labeling mass spectrometry proteomics; type: cell-based, human; conditions: 1 μM, 2 h
# Description: To do this, we subjected our heterozygous BromoTag-Brd2 HEK293 cell line to a 1 μM treatment of 46, its non-degrading control 52, or vehicle (DMSO) for 2 h prior to harvest. The harvested lysate was then subjected to multiplexed tandem mass tag (TMT) labeling mass spectrometry to enable quantitative and unbiased analysis of protein levels in each condition.
# CRISPR-modified BromoTag-Brd2 HEK293 cells (5 × 10^6) were seeded on a […] 24 h before treatment. The cells were treated with either DMSO, 1 μM AGB1, or 1 μM cis-AGB1. After 2 h of treatment, the cells were washed twice with PBS. The cells were lysed in 150 μL of 100 mM TEAB and 5% (w/v) sodium dodecyl sulfate. The lysate was sonicated for 10 s and then centrifuged at 15,000g for 5 min with the supernatant collected post-centrifugation. The samples were then quantified using a micro-BCA protein assay kit (Thermo Fisher Scientific); 300 μg of each sample was then reduced, alkylated, and then digested using the Strap mini protocol (protifi) as described by the manufacturer (protifi) with some modification. The samples were double-digested with trypsin (1:40) first overnight and then for another 6 h with the same ratio (1:40) in 50 mM TEAB buffer. The peptides were quantified using a quantitative fluorometric peptide assay (Thermo Fisher Scientific). […]
# [11] = test system: BET proteins: Brd2, Brd3, and Brd4; assay: Single-concentration western blot screen, BET proteins; type: cell-based, human; conditions: 1 μM, 6 h
# Description: With this initial library in hand, we set out to evaluate the activity and selectivity of our I-BET-based B&H–PROTACs by treating our heterozygous BromoTag-Brd2 HEK293 cells with 1 μM of compounds 15–17 or 1 μM of control compounds MZP-15 (14), MZ1 (1), and cis-MZ1 for 6 h, which is the sufficient time to achieve effective MZ1-induced BET protein degradation (Figure 4A). The cells were harvested, and the subsequent lysate was analyzed via western blot using antibodies against BET proteins: Brd2, Brd3, and Brd4 (Figure 4A).
# as §1, with “Millipore).” for “Millipore). The membranes were blocked for 1 h prior to incubation with the primary antibodies using 5% Milk TBST.”
structure (smiles),measurement,setting,value
"CC[C@@H](C(=O)OCCOCCCOCC(=O)N[C@H](C(=O)N1C[C@H](O)C[C@H]1C(=O)N[C@@H](C)c1ccc(-c2scnc2C)cc1)C(C)(C)C)[C@@H]1N=C(c2ccc(Cl)cc2)c2c(sc(C)c2C)-n2c(C)nnc21 [AGB2 (47), 2-(3-(2-(((S)-1-((2S,4R)-4-Hydroxy-2-(((S)-1-(4-(4-methylthiazol-5-yl)phenyl)ethyl)carbamoyl)pyrrolidin-1-yl)-3,3-dimethyl-1-oxobutan-2-yl)amino)-2-oxoethoxy)propoxy)ethyl (R)-2-((S)-4-(4-chlorophenyl)-2,3,9-trimethyl-6H-thieno[3,2-f][1,2,4]triazolo[4,3-a][1,4]diazepin-6-yl)butanoate]",extent of BromoTag-Brd2 degradation in the time course experiment,[1],near-complete target degradation
same,Kd,[2],45 nM
same,α (FP binding),[3],3.6
same,Kd,[3],12 nM
same,cooperativity (α),[3],3.6
same,pDC50 (Ab: Brd^4BD2 L387A),[4],9.0 ± 0.4
same,pDC50 (Ab: BromoTag-Brd2),[4],8.6 ± 0.2
same,DC50,[4],1 to 3 nM
"CC[C@@H](C(=O)NCCOCCOCCOCC(=O)N[C@H](C(=O)N1C[C@H](O)C[C@H]1C(=O)NCc1ccc(-c2scnc2C)cc1)C(C)(C)C)[C@@H]1N=C(c2ccc(Cl)cc2)c2c(sc(C)c2C)-n2c(C)nnc21 [AGB3 (48), (2S,4R)-1-((2S,17R)-2-(tert-Butyl)-17-((S)-4-(4-chlorophenyl)-2,3,9-trimethyl-6H-thieno[3,2-f][1,2,4]triazolo[4,3-a][1,4]diazepin-6-yl)-4,16-dioxo-6,9,12-trioxa-3,15-diazanonadecanoyl)-4-hydroxy-N-(4-(4-methylthiazol-5-yl)benzyl)pyrrolidine-2-carboxamide]",Kd,[2],102 nM
same,α (FP binding),[3],10.9
same,Kd,[3],9 nM
same,cooperativity (α),[3],10.9
same,pDC50 (Ab: Brd^4BD2 L387A),[4],6.5 ± 0.3
same,pDC50 (Ab: BromoTag-Brd2),[4],6.7 ± 0.1
same,DC50,[4],210 to 290 nM
CC[C@@H](C(=O)OC)[C@@H]1N=C(c2ccc(Cl)cc2)c2c(sc(C)c2C)-n2c(C)nnc21 [ET-JQ1-OMe],binding to the wild-type domain,[5],undetectable binding
Cc1ncsc1-c1ccc(CNC(=O)[C@@H]2C[C@@H](O)CN2C(=O)[C@@H](NC(=O)COCCOCCOCCNC(=O)C[C@@H]2N=C(c3ccc(Cl)cc3)c3c(sc(C)c3C)-n3c(C)nnc32)C(C)(C)C)cc1 [MZ1 (1)],EC50,[6],5010 nM
same,T1/2,"[7]; IV (5 mg/kg), 5 mg/kg",1.04 h
same,T1/2,[7]; SC (5 mg/kg),2.95 h
same,EC50,"[8]; MV-4-11, 24 Hours, mean ±S.E.M, N = 2, read-out: pEC50 (cell viability) (converted)",25.1 nM
same,EC50,"[8]; MV-4-11 cells, read-out: EC50 (cell viability)",~20 nM
"CC[C@@H](C(=O)OCCOCCOCCOCC(=O)N[C@H](C(=O)N1C[C@@H](O)C[C@H]1C(=O)NCc1ccc(-c2scnc2C)cc1)C(C)(C)C)[C@@H]1N=C(c2ccc(Cl)cc2)c2c(sc(C)c2C)-n2c(C)nnc21 [cis-AGB1 (52), (S)-13-((2S,4S)-4-Hydroxy-2-((4-(4-methylthiazol-5-yl)benzyl)carbamoyl)pyrrolidine-1-carbonyl)-14,14-dimethyl-11-oxo-3,6,9-trioxa-12-azapentadecyl (R)-2-((S)-4-(4-chlorophenyl)-2,3,9-trimethyl-6H-thieno[3,2-f][1,2,4]triazolo[4,3-a][1,4]diazepin-6-yl)butanoate]",EC50,[9],> 10000 nM
same,proteins significantly degraded among the 6621 proteins quantified,[10],No significant degradation
Cc1ncsc1-c1ccc(CNC(=O)[C@@H]2C[C@H](O)CN2C(=O)[C@@H](NC(=O)COCCOCCOCCNC(=O)C[C@@H]2N=C(c3ccc(Cl)cc3)c3c(sc(C)c3C)-n3c(C)nnc32)C(C)(C)C)cc1 [cis-MZ1],EC50,[6],> 10000 nM
"COc1ccc2c(c1)C(c1ccc(Cl)cc1)=NC(CC(=O)NCCOCCOCCOCC(=O)N[C@H](C(=O)N1C[C@H](O)C[C@H]1C(=O)NCc1ccc(-c3scnc3C)cc1)C(C)(C)C)c1nnc(C)n1-2 (stereo partly drawn) [compound 14, (2S,4R)-1-((2S)-2-(tert-Butyl)-17-(6-(4-chlorophenyl)-8-methoxy-1-methyl-4H-benzo[f][1,2,4]triazolo[4,3-a][1,4]diazepin-4-yl)-4,16-dioxo-6,9,12-trioxa-3,15-diazaheptadecanoyl)-4-hydroxy-N-(4-(4-methylthiazol-5-yl)benzyl)pyrrolidine-2-carboxamide]",degradation activity across all the three BET family members relative to 1,[11],significant lower activity
